Reference: patent publication US11591341B2 (ALIGOS THERAPEUTICS, INC., priority 2019, dated 2023)

Tested on: HBV
Assay: HBV-DNA Antiviral Assay Using HepG2.117 Cells (intracellular HBV DNA by qPCR)
Assay type: cell-based, hepatitis B virus (genotype D)
Settings: Hepatitis B virus, HepG2.117
Summary of the method: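 Endpoint: qPCR copy number of intracellular HBV DNA after 3-day compound exposure, with inhibition set relative to the 2% DMSO control. The cells were doxycycline-free HepG2.117 carrying a Tet-off genotype D genome, dosed at nine 4-fold dilutions. A duplicate plate gave ATP-based viability (CC50).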

Structure (SMILES)	EC50 [nM]
O=C(NCc1ccccc1)c1c2n(c(=O)n1-c1ccc(N3CCC3=O)cc1)CCN(C(=O)c1ccc(Br)c(Cl)c1)C2 [Example 419, N-benzyl-7-(4-bromo-3-chloro-benzoyl)-3-oxo-2-[4-(2-oxoazetidin-1-yl)phenyl]-6,8-dihydro-5H-imidazo[1,5-a]pyrazine-1-carboxamide]	500 to 5000
O=C(NCc1ccccc1-n1cc(F)cn1)c1c2n(c(=O)n1-c1ccc(OC3CC3)cc1)CCN(C(=O)c1ccc(Br)c(Cl)c1)C2 [Example 421, 7-(4-bromo-3-chloro-benzoyl)-2-[4-(cyclopropoxy)phenyl]-N-[[2-(4-fluoropyrazol-1-yl)phenyl]methyl]-3-oxo-6,8-dihydro-5H-imidazo[1,5-a]pyrazine-1-carboxamide]	< 100
O=C(NCc1ccccc1-n1cncn1)c1c2n(c(=O)n1-c1ccc(OC3CC3)cc1)CCN(C(=O)c1ccc(Br)c(Cl)c1)C2 [Example 422, 7-(4-bromo-3-chloro-benzoyl)-2-[4-(cyclopropoxy)phenyl]-3-oxo-N-[[2-(1,2,4-triazol-1-yl)phenyl]methyl]-6,8-dihydro-5H-imidazo[1,5-a]pyrazine-1-carboxamide]	< 100
O=C(NCc1ccccc1-c1ccncn1)c1c2n(c(=O)n1-c1ccc(OCC(F)(F)F)cc1)CCN(C(=O)c1ccc(Br)c(Cl)c1)C2 [Example 423, 7-(4-bromo-3-chloro-benzoyl)-3-oxo-N-[(2-pyrimidin-4-ylphenyl)methyl]-2-[4-(2,2,2-trifluoroethoxy)phenyl]-6,8-dihydro-5H-imidazo[1,5-a]pyrazine-1-carboxamide]	< 100
O=C(NCc1ccccc1-c1ccncn1)c1c2n(c(=O)n1-c1ccc(OC3CC3)cc1)CCN(C(=O)c1ccc(Br)c(Cl)c1)C2 [Example 424, 7-(4-bromo-3-chloro-benzoyl)-2-[4-(cyclopropoxy)phenyl]-3-oxo-N-[(2-pyrimidin-4-ylphenyl)methyl]-6,8-dihydro-5H-imidazo[1,5-a]pyrazine-1-carboxamide]	< 100
O=C(NCc1ccccc1-c1ncc[nH]1)c1c2n(c(=O)n1-c1ccc(OCC(F)(F)F)cc1)CCN(C(=O)c1ccc(Br)c(Cl)c1)C2 [Example 425, 7-(4-bromo-3-chloro-benzoyl)-N-[[2-(1H-imidazol-2-yl)phenyl]methyl]-3-oxo-2-[4-(2,2,2-trifluoroethoxy)phenyl]-6,8-dihydro-5H-imidazo[1,5-a]pyrazine-1-carboxamide]	< 100
N#Cc1cc(C(=O)N2CCn3c(c(C(=O)NCc4ccccc4-c4ncccn4)n(-c4ccc(-n5cccn5)cc4)c3=O)C2)ccc1Br [Example 426, 7-(4-bromo-3-cyano-benzoyl)-3-oxo-2-(4-pyrazol-1-ylphenyl)-N-[(2-pyrimidin-2-ylphenyl)methyl]-6,8-dihydro-5H-imidazo[1,5-a]pyrazine-1-carboxamide]	100 to 500
O=C(NCc1ccccc1)c1c2n(c(=O)n1-c1ccc(-n3cc(F)cn3)cc1)CCN(C(=O)c1ccc(Br)c(Cl)c1)C2 [Example 427, N-benzyl-7-(4-bromo-3-chloro-benzoyl)-2-[4-(4-fluoropyrazol-1-yl)phenyl]-3-oxo-6,8-dihydro-5H-imidazo[1,5-a]pyrazine-1-carboxamide]	100 to 500
CC(C)(Oc1ccc(CNC(=O)c2c3n(c(=O)n2-c2ccc(OCC(F)(F)F)cc2)CCN(C(=O)c2ccc(Br)c(Cl)c2)C3)c(F)c1)C(N)=O [Example 428, N-[[4-(2-amino-1,1-dimethyl-2-oxo-ethoxy)-2-fluoro-phenyl]methyl]-7-(4-bromo-3-chloro-benzoyl)-3-oxo-2-[4-(2,2,2-trifluoroethoxy)phenyl]-6,8-dihydro-5H-imidazo[1,5-a]pyrazine-1-carboxamide]	100 to 500
O=C(NCc1ccccc1-c1ncccn1)c1c2n(c(=O)n1-c1ccc(-n3cccn3)cc1)CCN(C(=O)c1ccc(Br)c(Cl)c1)C2 [Example 429, 7-(4-bromo-3-chloro-benzoyl)-3-oxo-2-(4-pyrazol-1-ylphenyl)-N-[(2-pyrimidin-2-ylphenyl)methyl]-6,8-dihydro-5H-imidazo[1,5-a]pyrazine-1-carboxamide]	< 100
O=C(NCc1ccccc1)c1c2n(c(=O)n1-c1ccc(-c3ncc[nH]3)cc1)CCN(C(=O)c1ccc(Br)c(Cl)c1)C2 [Example 430, N-benzyl-7-(4-bromo-3-chloro-benozyl)-2-[4-(1H-imidazol-2-yl)phenyl]-3-oxo-6,8-dihydro-5H-imidazo[1,5-a]pyrazine-1-carboxamide]	500 to 5000
O=C1COc2ccc(CNC(=O)c3c4n(c(=O)n3-c3ccc(OC5CC5)cc3)CCN(C(=O)c3ccc(Br)c(Cl)c3)C4)cc2N1 [Example 431, 7-(4-bromo-3-chloro-benzoyl)-2-[4-(cyclopropoxy)phenyl]-3-oxo-N-[(3-oxo-4H-1,4-benzoxazin-6-yl)methyl]-6,8-dihydro-5H-imidazo[1,5-a]pyrazine-1-carboxamide]	500 to 5000
N#Cc1cc(C(=O)N2CCn3c(c(C(=O)NCc4ccccc4-c4ncccn4)n(-c4ccc(OC5CC5)cc4)c3=O)C2)ccc1Br [Example 432, 7-(4-bromo-3-cyano-benzoyl)-2-[4-(cyclopropoxy)phenyl]-3-oxo-N-[(2-pyrimidin-2-ylphenyl)methyl]-6,8-dihydro-5H-imidazo[1,5-a]pyrazine-1-carboxamide]	100 to 500
N#Cc1cc(C(=O)N2CCn3c(c(C(=O)NCc4ccccc4-c4ncco4)n(-c4ccc(OC5CC5)cc4)c3=O)C2)ccc1Br [Example 433, 7-(4-bromo-3-cyano-benzoyl)-2-[4-(cyclopropxy)phenyl]-N-[(2-oxazol-2-ylphenyl)methyl]-3-oxo-6,8-dihydro-5H-imidazo[1,5-a]pyrazine-1-carboxamide]	100 to 500
O=C(NCc1ccccc1-c1nnco1)c1c2n(c(=O)n1-c1ccc(OC3CC3)cc1)CCN(C(=O)c1ccc(Br)c(Cl)c1)C2 [Example 434, 7-(4-bromo-3-chloro-benzoyl)-2-[4-(cyclopropoxy)phenyl]-N-[[2-(1,3,4-oxadiazol-2-yl)phenyl]methyl]-3-oxo-6,8-dihydro-5H-imidazo[1,5-a]pyrazine-1-carboxamide]	< 100
O=C(NCc1c(F)cccc1-n1cccn1)c1c2n(c(=O)n1-c1ccc(OC3CC3)cc1)CCN(C(=O)c1ccc(Br)c(Cl)c1)C2 [Example 435, 7-(4-bromo-3-chloro-benzoyl)-2-[4-(cyclopropoxy)phenyl]-N-[(2-fluoro-6-pyrazol-1-yl-phenyl)methyl]-3-oxo-6,8-dihydro-5H-imidazo[1,5-a]pyrazine-1-carboxamide]	< 100
COc1ccc([C@H](C)NC(=O)c2c3n(c(=O)n2-c2ccc(-n4cccn4)cc2)CCN(C(=O)c2ccc(Br)c(Cl)c2)C3)cc1 [Example 442, 7-(4-bromo-3-chloro-benzoyl)-N-[(1S)-1-(4-methoxyphenyl)ethyl]-3-oxo-2-(4-pyrazol-1-ylphenyl)-6,8-dihydro-5H-imidazo[1,5-a]pyrazine-1-carboxamide]	100 to 500
COc1ccc([C@H](C)NC(=O)c2c3n(c(=O)n2-c2ccc(OC4CC4)cc2)CCN(C(=O)c2ccc(Br)c(Cl)c2)C3)cc1 [Example 443, 7-(4-bromo-3-chloro-benozyl)-2-[4-(cyclopropoxy)phenyl]-N-[(1S)-1-(4-methoxyphenyl)ethyl]-3-oxo-6,8-dihydro-5H-imidazo[1,5-a]pyrazine-1-carboxamide]	100 to 500
N#Cc1cc(C(=O)N2CCn3c(c(C(=O)NCc4ccccc4-c4cccnn4)n(-c4ccc(OC5CC5)cc4)c3=O)C2)ccc1Br [Example 445, 7-(4-bromo-3-cyano-benzoyl)-2-[4-(cyclopropoxy)phenyl]-3-oxo-N-[(2-pyridazin-3-ylphenyl)methyl]-6,8-dihydro-5H-imidazo[1,5-a]yprazine-1-carboxamide]	100 to 500
O=C(NCc1ccccc1)c1c2n(c(=O)n1-c1ccc(OC3CC3)cc1)CCN(C(=O)c1cc(Cl)c(Br)cc1F)C2 [Example 446, N-benzyl-7-(4-bromo-5-chloro-2-fluoro-benzoyl)-2-[4-(cyclopropoxy)phenyl]-3-oxo-6,8-dihydro-5H-imidazo[1,5-a]pyrazine-1-carboxamide]	> 5000
COc1ccc([C@@H](C)NC(=O)c2c3n(c(=O)n2-c2ccc(OC4CC4)cc2)CCN(C(=O)c2ccc(Br)c(Cl)c2)C3)cc1 [Example 453, 7-(4-bromo-3-chloro-benzoyl)-2-[4-(cyclopropoxy)phenyl]-N-[(1R)-1-(4-methoxyphenyl)ethyl]-3-oxo-6,8-dihydro-5H-imidazo[1,5-a]pyrazine-1-carboxamide]	100 to 500
COc1ccc([C@@H](C)NC(=O)c2c3n(c(=O)n2-c2ccc(-n4cccn4)cc2)CCN(C(=O)c2ccc(Br)c(Cl)c2)C3)cc1 [Example 454, 7-(4-bromo-3-chloro-benzoyl)-N-[(1R)-1-(4-methoxyphenyl)ethyl]-3-oxo-2-(4-pyrazol-1-ylphenyl)-6,8-dihydro-5H-imidazo[1,5-a]pyrazine-1-carboxamide]	100 to 500
Cc1ccn(-c2ccc(-n3c(C(=O)NCc4ccccc4)c4n(c3=O)CCN(C(=O)c3ccc(Br)c(Cl)c3)C4)cc2)n1 [Example 455, N-benzyl-7-(4-bromo-3-chloro-benzoyl)-2-[4-(3-methylpyrazol-1-yl)phenyl]-3-oxo-6,8-dihydro-5H-imidazo[1,5-a]pyrazine-1-carboxamide]	100 to 500
Cc1ccnn1-c1ccc(-n2c(C(=O)NCc3ccccc3)c3n(c2=O)CCN(C(=O)c2ccc(Br)c(Cl)c2)C3)cc1 [Example 456, N-benzyl-7-(4-bromo-3-chloro-benzoyl)-2-[4-(5-methylpyrazol-1-yl)phenyl]-3-oxo-6,8-dihydro-5H-imidazo[1,5-a]pyrazine-1-carboxamide]	500 to 5000
O=C(NCc1ccccc1-n1cccn1)c1c2n(c(=O)n1-c1ccc(OC3CC3)cc1)CCN(C(=O)c1ccc(Br)c(Cl)c1)C2 [Example 457, 7-(4-bromo-3-chloro-benzoyl)-2-[4-(cyclopropoxy)phenyl]-3-oxo-N-[(2-pyrazol-1-ylphenyl)methyl]-6,8-dihydro-5H-imidazo[1,5-a]pyrazine-1-carboxamide]	< 100
